{"source": "patent US8337856B2", "about": "“Methods of treatment using anti-ERBB antibody-maytansinoid conjugates” (Immunogen, Inc., priority 2000, dated 2012)", "origin": "cited, not measured here", "details": "clinical trials discontinued", "data": [{"compound": "COc1cc2cc(c1Cl)N(C)C(=O)C[C@H](OC(=O)[C@H](C)N(C)C(C)=O)[C@]1(C)O[C@H]1[C@H](C)[C@@H]1C[C@@](O)(NC(=O)O1)[C@H](OC)/C=C/C=C(\\C)C2", "note": "[maytansine, Maytansine]", "values": [{"measurement": "adverse effects in clinical trials", "result": "serious adverse effects on the central nervous system and gastrointestinal system"}]}]}
